“Also recorded” adds a separate entry of the source.
Test system: 2F–2B ECs
Format: cell-based, murine
Procedure: The murine 2F–2B endothelial cell line (ATCC) was transiently transfected as described elsewhere (Soares et al., Nature Med. 4:1073, 1998; Brouard et al, J. Exp. Med. 192:1015, 2000). All experiments were conducted 24–48 h after transfection. é-galactosidase-transfected cells were detected as described elsewhere (Soares et al., Nature Med. 4:1073, 1998; Brouard et al., J. Exp. Med. 192:1015, 2000). Percentage of viable cells was assessed by evaluating the number of é-galactosidase-expressing cells that retained normal morphology as described elsewhere (Soares et al., Nature Med. 4:1073, 1998; Brouard et al., J. Exp. Med. 192:1015, 2000). The number of random fields counted was determined to have a minimum of 200 viable transfected cells per control well. The percentage of viable cells was normalized for each DNA preparation to the number of transfected cells counted in the absence of the apoptosis-inducing agent (100% viability). All experiments were performed at least three times in duplicate. Actinomycin D (Act. D; Sigma) was dissolved in PBS and added to the culture medium (10 îg/ml) 24 h after transfection. SnPPIX (Porphyrin Products) was dissolved (10 îM) in 100 mM NaOH and conserved at −20° C. until used. SNPPIX was added to the culture medium (50 îM) 6 h after transfection. Human recombinant TNF-α (R&D Systems, Minneapolis, Minn.) was dissolved in PBS, 1% BSA, and added to the culture medium (10–100 ng/ml) 24 h after transfection.
Cells were exposed to compressed air or varying concentration of CO (250 and 10,000 ppm), as described elsewhere (Otterbein et al., Nature Med. 6:422, 2000; and Brouard et al., J. Exp. Med. 192:1015, 2000).
BAECs and 2F–2B ECs were transiently transfected. All experiments were carried out 24–48 h after transfection. The percentage of viable cells was assessed by evaluating the number of β-galactosidase-expressing cells that retained normal morphology. The number of random fields counted was determined to have a minimum of 200 viable transfected cells per control well. The percentage of viable cells was normalized for each DNA preparation to the number of transfected cells counted in the absence of the apoptosis-inducing agent (100% viability). All experiments were performed at least three times in duplicate.
Actinomycin D (Act.D; Sigma-Aldrich) was dissolved in PBS and added to the culture medium 24 h after transfection. The Act.D concentration used corresponded to the optimal concentration necessary to sensitize ECs to TNF-α mediated apoptosis, e.g., 10 μg/ml for 2F–2B ECs and 0.1 μg/ml for BAECs. When indicated, EC apoptosis was induced by etoposide (200 μM, 8 h; Calbiochem-Novabiochem) or by serum deprivation (0.1% FCS for 24 h). The iron chelator deferoxamine mesylate (DFO; Sigma-Aldrich) was dissolved in water and added to culture medium (1–100 μM) 1 h before the induction of apoptosis. Hemoglobin (Hb; Sigma-Aldrich) was dissolved (1 mM) in PBS, 10 mM Na2S2O4, dialyzed against PBS (2 h, 4° C., 1:800 dilution), and added to the culture medium (1–100 μM) 6 h after transfection. The guanylcyclase inhibitor 1H(1,2,4)oxadiazolo(4,3)quinoxalin-1 (ODQ; Calbiochem-Novabiochem) was dissolved in DMSO (Sigma-Aldrich) and added to the culture medium (10–100 μM) 6 h after transfection. Iron protoporphyrin ([FePP]/heme), cobalt protoporphyrin (CoPPIX), and tin protoporphyrin (SnPPIX; all from Porphyrin Products, Inc.) were dissolved (10 mM) in 100 mM NaOH and held at −20° C. until use. Metalloporphyrins were added to the culture medium (50 μM) 6 h after transfection. The cGMP analogue 8-bromo-cGMP sodium salt (8-Br-cGMP; Sigma-Aldrich) was dissolved in water and added to the culture medium (10–100 µM) 30 min before the induction of apoptosis. Human recombinant TNF- (R&D Systems) was dissolved in PBS and 1% BSA, and added to the culture medium (10–100 ng/ml) 24 h after transfection.
Cells were exposed to compressed air from a compressed air tank or varying concentrations of CO (250 and 10,000 ppm).

Nc1nc2c(nc(Br)n2[C@@H]2O[C@@H]3COP(=O)(O)O[C@H]3[C@H]2O)c(=O)[nH]1 [8-Br-cGMP, 8-bromoguanosine-3′-5′-cyclic-monophosphate]
effect on EC apoptosis (8-Br-cGMP): failed to suppress EC apoptosis

[C-]#[O+] [CO, carbon monoxide]
effect on EC apoptosis under inhibition of HO activity by SnPPIX (CO 250 ppm): did not suppress EC apoptosis significantly
effect on TNF-α mediated apoptosis of control ECs (pcDNA3) (exogenous CO 10,000 ppm): TNF-α mediated apoptosis was suppressed

C=CC1=C(C)c2cc3[n-]c(cc4[n-]c(cc5nc(cc1n2)C(C)=C5C=C)c(C)c4CCC(=O)O)c(CCC(=O)O)c3C.[Fe+2] [FePPIX, iron protoporphyrin]
concentrations at which heme becomes cytotoxic (2F–2B ECs): higher than 10 μM
heme concentrations at which the protective effect from TNF-α plus Act.D-mediated apoptosis was observed (2F–2B ECs): 5 to 7 µM
effect on EC apoptosis when CO was scavenged by Hb (FePP 6.25 μM, Hb 50 μM): no longer able to suppress EC apoptosis

O=c1onc2cnc3ccccc3n12 [ODQ, 1H[1,2,4]oxadiazolo[4,3-α]quinoxalin-1]
effect on the antiapoptotic effects of HO-1 (ODQ 10–100 μM): did not suppress the antiapoptotic effects of HO-1

C=Cc1c2[n-]c(c1C)/C=c1\[n-]/c(c(C)c1C=C)=C\c1[n-]c(c(CCC(=O)O)c1C)C=c1[n-]/c(c(C)c1CCC(=O)O)=C\2.[Sn+4] [SnPPIX, tin protoporphyrin IX]
effect of protoporphyrin on the antiapoptotic effect of HO-1 (HO-1 transfected ECs, protoporphyrin 50 μM): blocked the antiapoptotic effect of HO-1; also recorded: HO-1 was no longer able to prevent EC apoptosis
